Laboratory results from patent publication US20120220562A1, “Anti-Viral Compounds” (ABBOTT LABAORATORIES, priority 2011, published 2012).

Tested on: HCV 1b-Con1 replicon
Experiment: HCV 1b-Con1 replicon assay in the presence of 5% FBS
Type: cell-based
Conditions: Hepatitis C virus

COC(=O)NC(C(=O)N1CCC[C@H]1c1nc2cc([C@H]3CC[C@H](c4ccc5[nH]c([C@@H]6CCCN6C(=O)C(NC(=O)OC)C(C)C)nc5c4)N3c3cc(F)c(N4CCC(F)CC4)c(F)c3)ccc2[nH]1)C(C)C (stereo partly drawn) [Example 1.6, methyl {1-[(2S)-2-{5-[(2R,5R)-1-[3,5-difluoro-4-(4-fluoropiperidin-1-yl)phenyl]-5-{2-[(2S)-1-{2-[(methoxycarbonyl)amino]-3-methylbutanoyl}pyrrolidin-2-yl]-1H-benzimidazol-5-yl}pyrrolidin-2-yl]-1H-benzimidazol-2-yl}pyrrolidin-1-yl]-3-methyl-1-oxobutan-2-yl}carbamate]
EC50: < 0.1 nM

COC(=O)N[C@H](C(=O)N1CCC[C@H]1c1nc2cc([C@H]3CC[C@H](c4ccc5nc([C@@H]6CCCN6C(=O)[C@@H](NC(=O)OC)C(C)C)[nH]c5c4)N3c3ccc(C4CCCCC4)c(F)c3)ccc2[nH]1)C(C)C [Example 4.8, methyl {(2S)-1-[(2S)-2-{5-[(2R,5R)-1-(4-cyclohexyl-3-fluorophenyl)-5-{2-[(2S)-1-{(2S)-2-[(methoxycarbonyl)amino]-3-methylbutanoyl}pyrrolidin-2-yl]-1H-benzimidazol-6-yl}pyrrolidin-2-yl]-1H-benzimidazol-2-yl}pyrrolidin-1-yl]-3-methyl-1-oxobutan-2-yl}carbamate]
EC50: < 0.1 nM

COC(=O)N[C@H](C(=O)N1CCC[C@H]1c1nc2cc([C@H]3CC[C@@H](c4cc5nc([C@@H]6CCCN6C(=O)[C@@H](NC(=O)OC)C(C)C)[nH]c5cc4F)N3c3cnc(N4CCCCC4)nc3)c(F)cc2[nH]1)C(C)C [Example 3.47, methyl {(2S)-1-[(2S)-2-(6-fluoro-5-{(2R,5S)-5-{6-fluoro-2-[(2S)-1-{(2S)-2-[(methoxycarbonyl)amino]-3-methylbutanoyl}pyrrolidin-2-yl]-1H-benzimidazol-5-yl}-1-[2-(piperidin-1-yl)pyrimidin-5-yl]pyrrolidin-2-yl}-1H-benzimidazol-2-yl)pyrrolidin-1-yl]-3-methyl-1-oxobutan-2-yl}carbamate]
EC50: < 0.1 nM

COC(=O)N[C@H](C(=O)N1CCC[C@H]1c1nc2c(Cl)c([C@H]3CC[C@H](c4ccc5[nH]c([C@@H]6CCCN6C(=O)[C@@H](NC(=O)OC)C(C)C)nc5c4Cl)N3c3ccc(C(C)(C)C)cc3)ccc2[nH]1)C(C)C [Example 6.5, methyl {(2S)-1-[(2S)-2-{5-[(2R,5R)-1-(4-tert-butylphenyl)-5-{4-chloro-2-[(2S)-1-{(2S)-2-[(methoxycarbonyl)amino]-3-methylbutanoyl}pyrrolidin-2-yl]-1H-benzimidazol-5-yl}pyrrolidin-2-yl]-4-chloro-1H-benzimidazol-2-yl}pyrrolidin-1-yl]-3-methyl-1-oxobutan-2-yl}carbamate]
EC50: < 0.1 nM

COC(=O)N[C@H](C(=O)N1CCC[C@H]1c1nc2ccc([C@H]3CC[C@H](c4cc5[nH]c([C@@H]6CCCN6C(=O)[C@@H](NC(=O)OC)C(C)C)nc5cc4F)N3c3cc(F)c(N4CCCCC4)c(F)c3)cc2[nH]1)C(C)C [Example 4.43, methyl {(2S)-1-[(2S)-2-{6-[(2R,5R)-1-[3,5-difluoro-4-(piperidin-1-yl)phenyl]-5-{5-fluoro-2-[(2S)-1-{(2S)-2-[(methoxycarbonyl)amino]-3-methylbutanoyl}pyrrolidin-2-yl]-1H-benzimidazol-6-yl}pyrrolidin-2-yl]-1H-benzimidazol-2-yl}pyrrolidin-1-yl]-3-methyl-1-oxobutan-2-yl}carbamate]
EC50: < 0.1 nM

CCC(CC)C(NC(=O)OC)C(=O)N1CCC[C@H]1c1nc2cc([C@H]3CC[C@H](c4ccc5[nH]c([C@@H]6CCCN6C(=O)C(NC(=O)OC)C(CC)CC)nc5c4)N3c3cc(F)c(N4CCC(c5ccccc5)CC4)c(F)c3)ccc2[nH]1 (stereo partly drawn) [Example 3.29, methyl {1-[(2S)-2-{5-[(2R,5R)-1-[3,5-difluoro-4-(4-phenylpiperidin-1-yl)phenyl]-5-{2-[(2S)-1-{3-ethyl-2-[(methoxycarbonyl)amino]pentanoyl}pyrrolidin-2-yl]-1H-benzimidazol-5-yl}pyrrolidin-2-yl]-1H-benzimidazol-2-yl}pyrrolidin-1-yl]-3-ethyl-1-oxopentan-2-yl}carbamate]
EC50: < 0.1 nM

COC(=O)N[C@H](C(=O)N1CCC[C@H]1c1nc2cc([C@H]3CC[C@H](c4cc5nc([C@@H]6CCCN6C(=O)[C@@H](NC(=O)OC)C(C)C)[nH]c5cc4F)N3c3ccc(N4CCCCC4)c(F)c3)c(F)cc2[nH]1)C(C)C [Example 6.9, methyl {(2S)-1-[(2S)-2-(6-fluoro-5-{(2R,5R)-5-{6-fluoro-2-[(2S)-1-{(2S)-2-[(methoxycarbonyl)amino]-3-methylbutanoyl}pyrrolidin-2-yl]-1H-benzimidazol-5-yl}-1-[3-fluoro-4-(piperidin-1-yl)phenyl]pyrrolidin-2-yl}-1H-benzimidazol-2-yl)pyrrolidin-1-yl]-3-methyl-1-oxobutan-2-yl}carbamate]
EC50: < 0.1 nM

COC(=O)N[C@H](C(=O)N1CCC[C@H]1c1ncc(-c2cccc(C3(c4cccc(-c5cnc([C@@H]6CCCN6C(=O)[C@@H](NC(=O)OC)C(C)C)[nH]5)c4)CN(c4ccccc4)C3)c2)[nH]1)C(C)C [Example 12.2, methyl {(2S)-1-[(2S)-2-(5-{3-[3-(3-{2-[(2S)-1-{(2S)-2-[(methoxycarbonyl)amino]-3-methylbutanoyl}pyrrolidin-2-yl]-1H-imidazol-5-yl}phenyl)-1-phenylazetidin-3-yl]phenyl}-1H-imidazol-2-yl)pyrrolidin-1-yl]-3-methyl-1-oxobutan-2-yl}carbamate]
EC50: 1 to 10 nM

COC(=O)N[C@H](C(=O)N1CCC[C@H]1c1nc2cc([C@H]3CC[C@H](c4ccc5[nH]c([C@@H]6CCCN6C(=O)[C@@H](NC(=O)OC)C(C)C)nc5c4)N3c3cc(F)c(N4CCC5(CC4)CC5)c(F)c3)ccc2[nH]1)C(C)C [Example 5.11, methyl {(2S)-1-[(2S)-2-{5-[(2R,5R)-1-[4-(6-azaspiro[2.5]oct-6-yl)-3,5-difluorophenyl]-5-{2-[(2S)-1-{(2S)-2-[(methoxycarbonyl)amino]-3-methylbutanoyl}pyrrolidin-2-yl]-1H-benzimidazol-5-yl}pyrrolidin-2-yl]-1H-benzimidazol-2-yl}pyrrolidin-1-yl]-3-methyl-1-oxobutan-2-yl}carbamate]
EC50: < 0.1 nM

COC(=O)N[C@H](C(=O)N1C[C@H](OC)C[C@H]1c1nc2cc([C@H]3CC[C@H](c4ccc5[nH]c([C@@H]6C[C@@H](OC)CN6C(=O)[C@@H](NC(=O)OC)C(C)C)nc5c4)N3c3cc(F)c(N4CCCCC4)c(F)c3)ccc2[nH]1)C(C)C [Example 5.5, methyl {(2S)-1-[(2S,4R)-2-{5-[(2R,5R)-1-[3,5-difluoro-4-(piperidin-1-yl)phenyl]-5-{2-[(2S,4R)-4-methoxy-1-{(2S)-2-[(methoxycarbonyl)amino]-3-methylbutanoyl}pyrrolidin-2-yl]-1H-benzimidazol-5-yl}pyrrolidin-2-yl]-1H-benzimidazol-2-yl}-4-methoxypyrrolidin-1-yl]-3-methyl-1-oxobutan-2-yl}carbamate]
EC50: < 0.1 nM

COC(=O)N[C@H](C(=O)N1CCC[C@H]1c1nc2cc([C@H]3CC[C@H](c4ccc5[nH]c([C@@H]6CCCN6C(=O)[C@@H](NC(=O)OC)C(C)C)nc5c4)N3c3cc(F)c(N4CCC(c5cccc([Si](C)(C)C)c5)CC4)c(F)c3)ccc2[nH]1)C(C)C [Example 3.43, methyl {(2S)-1-[(2S)-2-{5-[(2R,5R)-1-(3,5-difluoro-4-{4-[3-(trimethylsilyl)phenyl]piperidin-1-yl}phenyl)-5-{2-[(2S)-1-{(2S)-2-[(methoxycarbonyl)amino]-3-methylbutanoyl}pyrrolidin-2-yl]-1H-benzimidazol-5-yl}pyrrolidin-2-yl]-1H-benzimidazol-2-yl}pyrrolidin-1-yl]-3-methyl-1-oxobutan-2-yl}carbamate]
EC50: < 0.1 nM

COC(=O)N[C@H](C(=O)N1[C@H](c2nc3cc([C@H]4CC[C@H](c5ccc6[nH]c([C@@H]7C[C@@H]8CCC[C@@H]8N7C(=O)[C@@H](NC(=O)OC)[C@@H](C)OC)nc6c5)N4c4cc(F)c(N5CCCCC5)c(F)c4)ccc3[nH]2)C[C@@H]2CCC[C@@H]21)C(C)C [Example 10.2, methyl {(2S,3R)-1-[(2S,3aS,6aS)-2-{5-[(2R,5R)-1-[3,5-difluoro-4-(piperidin-1-yl)phenyl]-5-{2-[(2S,3aS,6aS)-1-{(2S)-2-[(methoxycarbonyl)amino]-3-methylbutanoyl}octahydrocyclopenta[b]pyrrol-2-yl]-1H-benzimidazol-5-yl}pyrrolidin-2-yl]-1H-benzimidazol-2-yl}hexahydrocyclopenta[b]pyrrol-1(2H)-yl]-3-methoxy-1-oxobutan-2-yl}carbamate]
EC50: < 0.1 nM

COC(=O)N[C@H](C(=O)N1C[C@@H](OC)C[C@H]1c1nc2cc([C@H]3CC[C@H](c4ccc5[nH]c([C@@H]6C[C@H](OC)CN6C(=O)[C@@H](NC(=O)OC)C(C)C)nc5c4)N3c3ccc(F)cc3)ccc2[nH]1)C(C)C [Example 3.10, methyl {(2S)-1-[(2S,4S)-2-{5-[(2R,5R)-1-(4-fluorophenyl)-5-{2-[(2S,4S)-4-methoxy-1-{(2S)-2-[(methoxycarbonyl)amino]-3-methylbutanoyl}pyrrolidin-2-yl]-1H-benzimidazol-5-yl}pyrrolidin-2-yl]-1H-benzimidazol-2-yl}-4-methoxypyrrolidin-1-yl]-3-methyl-1-oxobutan-2-yl}carbamate]
EC50: 0.1 to 1 nM

CCC1(COc2ccc(N3[C@@H](c4ccc5[nH]c([C@@H]6CCCN6C(=O)[C@@H](NC(=O)OC)C(C)C)nc5c4)CC[C@@H]3c3ccc4[nH]c([C@@H]5CCCN5C(=O)[C@@H](NC(=O)OC)C(C)C)nc4c3)cc2)COC1 [Example 1.7, methyl {(2S)-1-[(2S)-2-{5-[(2R,5R)-1-{4-[(3-ethyloxetan-3-yl)methoxy]phenyl}-5-{2-[(2S)-1-{(2S)-2-[(methoxycarbonyl)amino]-3-methylbutanoyl}pyrrolidin-2-yl]-1H-benzimidazol-5-yl}pyrrolidin-2-yl]-1H-benzimidazol-2-yl}pyrrolidin-1-yl]-3-methyl-1-oxobutan-2-yl}carbamate]
EC50: < 0.1 nM
